Measurements from patent publication US4973587A, “3-arylcarbonyl-1-aminoalkyl-1H-indole-containing antiglaucoma method” (Sterling Drug Inc., priority 1990, dated 1990).

Tested on: mouse vas deferens
Experiment: mouse vas deferens test (MVD)
Type: cell-based
Conditions: inhibition of contractions in mouse vas deferens preparation in vitro, active at 5.0 μM or less
From the text: Med. Assoc. 217, 1392 (1971)]. […] Opth 7, 921-923 (1975); Green and Pederson, Effect of delta-9 Tetrahydrocannabinol on Aqueous Dynamics and Ciliary Body Permeability in the Rabbit Eye., Exptl. Eye Research 15, 499-507 (1973); Colasanti, Craig and Allara, Intraocular Pressure, Ocular Toxicity and Neurotoxicity after Administration of Cannabinol or Cannibigerol, Exptl. Eye Research 39, 252-259 (1984)]. Similarly, synthetic cannabinoids also reduce intraocular pressure [Green, Symunds, Oliver and Elijah, Intraocular Pressure Following Systemic Administration of Cannabinoids, Curr. Eye Research 2, 247-253 (1982); Tiedeman, Shields, Weber, Crow, Coccetto, Harris and Howes, Ophthalmology., 88, 270-277 (1981); Colasanti et al., supra]. Cannabinoid receptor binding sites can be defined as those to which radio-labelled 4-(1,1-dimethylheptyl)-2,3'-dihydroxy-6'alpha-(3-hydroxypropyl)-1',2',3',4',5',6'-hexahydrobiphenyl (CP 55940) binds in a specific and saturable manner, and the binding sites are heterogeneously distributed in the brain [Devane, Dysarz, Johnson, Melvin and Howlett, Determination and Characterization of a Cannabinoid Receptor in Rat Brain, Molecular Pharm. 34, 605-613 (1988)]. Natural and synthetic cannabinoids and representative examples of the compounds of the present invention bind to CP 55940 binding sites. […] It is believed that agonist activity at the cannabinoid receptor mediates the anti-glaucoma actions of cannabinoids, and that agonist activity at this receptor correlates with ocular pressure lowering actions in man.

Compound | IC50 (Mus musculus) | IC50
Cc1c(C(=O)c2ccc3c(c2)OCO3)c2ccccc2n1CCN1CCOCC1 [Example 1-O] | 1300 nM | –
COc1cccc(C(=O)c2c(C)n(CCN3CCOCC3)c3ccccc23)c1 [Example 1AA] | 200 nM | –
COc1ccc(C(=O)c2c(C)n(CCN3CCOCC3)c3ccccc23)cc1OC [Example 1AB] | 68 nM | –
Cc1c(C(=O)c2ccccc2)c2ccccc2n1CCN1CCOCC1 [Example 1AE] | 700 nM | –
O=C(c1ccccc1)c1cn(CCN2CCOCC2)c2ccccc12 [Example 1AF] | 1100 nM | –
Cc1c(C(=O)c2ccc(Cl)cc2)c2ccccc2n1CCN1CCOCC1 [Example 1AG] | 560 nM | –
Cc1c(C(=O)c2ccccc2)c2ccccc2n1C(C)CN1CCOCC1 (centres unmarked) [Example 1AK] | 900 nM | –
COc1ccc(C(=O)c2c(C)n(CCN3CCOCC3)c3ccccc23)c2ccccc12 [Example 1AV] | 26 nM | –
COc1ccc2cc(C(=O)c3c(C)n(CCN4CCOCC4)c4ccccc34)ccc2c1 [Example 1AW] | 460 nM | –
COc1ccc(C(=O)c2cn(CCCN3CCOCC3)c3ccc(F)cc23)cc1 [Example 1AX] | > 10000 nM | –
Cc1c(C(=O)c2cccc3c2OCO3)c2ccccc2n1CCN1CCOCC1 [Example 1BJ] | 310 nM | –
Cc1cccc(C)c1C(=O)c1c(C)n(CCN2CCOCC2)c2ccccc12 [Example 1BO] | 1600 nM | –
COc1cccc(C(=O)c2c(C)n(CCN3CCOCC3)c3ccccc23)c1OC [Example 1BP] | 260 nM | –
COc1cc(OC)cc(C(=O)c2c(C)n(CCN3CCOCC3)c3ccccc23)c1 [Example 1BQ] | 420 nM | –
Cc1c(C(=O)c2cccc3ccccc23)c2ccccc2n1CCCN1CCOCC1 [Example 1BU] | 111 nM | –
Cc1ccc2c(C(=O)c3cccc4ccccc34)c(C)n(CCN3CCOCC3)c2c1 [Example 1BV] | 15 nM | –
O=C(c1cccc2ccccc12)c1cn(CCN2CCOCC2)c2ccc(Br)cc12 [Example 1BW] | 20 nM | –
CC(Cn1cc(C(=O)c2cccc3ccccc23)c2ccccc21)N1CCOCC1 (centres unmarked) [Example 1BX] | 60 nM | –
COc1ccc(C(=O)c2cn(CCCN3CCOCC3)c3ccccc23)cc1 [Example 1BZ] | 4300 nM | –
COc1cc(C(=O)c2c(C)n(CCN3CCOCC3)c3ccccc23)cc(OC)c1OC [Example 1CB] | 90 nM | –
COc1ccc(C(=O)c2cn(CCCN3CCOCC3)c3c(C)cccc23)cc1 [Example 1CD] | 40 nM | –
O=C(c1cccc2ccccc12)c1cn(CCN2CCOCC2)c2ccc(F)cc12 [Example 1CE] | 7 nM | –
Cc1c(C(=O)c2cccc3cc4ccccc4cc23)c2ccccc2n1CCN1CCOCC1 [Example 1CF] | 60 nM | –
Cc1c(C(=O)c2cc3ccccc3c3ccccc23)c2ccccc2n1CCN1CCOCC1 [Example 1CG] | 170 nM | –
O=C(c1ccccc1)c1cn(CCN2CCOCC2)c2ccccc12 [Example 1CH] | – | 1600 nM
COc1ccc(C(=O)c2c(C)n(CCN3CCCC3)c3ccccc23)cc1 [Example 1CI] | 240 nM | –
COc1ccc(C(=O)c2c(C)n(CCCN3CCCC3)c3ccccc23)cc1 [Example 1CJ] | > 10000 nM | –

Compound | IC50 (Mus musculus) | IC50
CSc1ccc(C(=O)c2c(C)n(CCN3CCOCC3)c3ccccc23)cc1 [Example 1C] | 610 nM | –
COc1ccc(C(=O)c2c(C)n(CCN3CCOCC3)c3c(C)cccc23)cc1 [Example 1D] | 178 nM | –
COc1ccc(C(=O)c2c(C)n(CCN3CCOCC3)c3ccc(F)cc23)cc1 [Example 1E] | 120 nM | –
COc1ccc(C(=O)c2c(C)n(CCN3CCOCC3)c3ccccc23)cc1 [Example 1F] | – | 1400 nM
COc1ccc(C(=O)c2c(C)n(CCCN3CCOCC3)c3ccccc23)cc1 [Example 1H] | 360 nM | –
COc1ccc(C(=O)c2c(C)n(CCN3CCOCC3)c3c(F)cccc23)cc1 [Example 1J] | 73 nM | –
COc1ccc(C(=O)c2c(C)n(CCN3CCOCC3)c3c(OC)cccc23)cc1 [Example 1K] | 260 nM | –
COc1ccc(C(=O)c2c(C)n(CCN3CCOCC3)c3cc(Cl)ccc23)cc1 [Example 1L] | 540 nM | –
Cc1c(C(=O)c2cc3ccccc3o2)c2ccccc2n1CCN1CCOCC1 [Example 1P] | 320 nM | –
COc1ccccc1C(=O)c1c(C)n(CCN2CCOCC2)c2ccccc12 [Example 1R] | 90 nM | –
Cc1c(C(=O)c2ccc3ccccc3c2)c2ccccc2n1CCN1CCOCC1 [Example 1S] | 50 nM | –
Cc1c(C(=O)c2cccc(F)c2)c2ccccc2n1CCN1CCOCC1 [Example 1U] | 1900 nM | –
CCc1ccc(C(=O)c2c(C)n(CCN3CCOCC3)c3ccccc23)cc1 [Example 1X] | 71 nM | –
Cc1ccc(C(=O)c2c(C)n(CCN3CCOCC3)c3ccccc23)cc1 [Example 1Z] | 440 nM | –
Cc1c(C(=O)c2ccc3occc3c2)c2ccccc2n1CCN1CCOCC1 [Example 2AA] | 125 nM | –
COc1ccc(C(=O)c2c(C)n(CCN3CCOCC3)c3ccccc23)c(F)c1 [Example 2AD] | 180 nM | –
Cc1c(C(=O)c2c(F)cccc2F)c2ccccc2n1CCN1CCOCC1 [Example 2AG] | 370 nM | –
Cc1cc(C)cc(C(=O)c2c(C)n(CCN3CCOCC3)c3ccccc23)c1 [Example 2AJ] | 390 nM | –
Cc1c(C(=O)c2cccc(F)c2)c2ccccc2n1C(C)CN1CCOCC1 (centres unmarked) [Example 2AM] | 860 nM | –
Cc1c(C(=O)c2ccc(Br)cc2)c2ccccc2n1CCN1CCOCC1 [Example 2AR] | 620 nM | –
Cc1c(C(=O)c2ccc(Br)c3ccccc23)c2ccccc2n1CCN1CCOCC1 [Example 2AT] | 34 nM | –
COc1ccc(C(=O)c2cn(C(C)CN3CCOCC3)c3ccccc23)cc1 (centres unmarked) [Example 2AU] | 3700 nM | –
CCC(CN1CCOCC1)n1c(C)c(C(=O)c2ccc3ccccc3c2)c2ccccc21 (centres unmarked) [Example 2AV] | 91 nM | –
O=C(c1ccc(Br)c2ccccc12)c1cn(CCN2CCOCC2)c2ccccc12 [Example 2AW] | 5 nM | –
O=C(c1cccc2ccccc12)c1cn(CCCN2CCOCC2)c2ccccc12 [Example 2AX] | 10 nM | –
Cc1ccc2c(C(=O)c3cccc4ccccc34)cn(CCN3CCOCC3)c2c1 [Example 2AY] | 2 nM | –
Cc1c(C(=O)c2ccc3ncccc3c2)c2ccccc2n1CCN1CCOCC1 [Example 2AZ] | 102 nM | –

Compound | IC50 (Mus musculus) | IC50
Cc1c(C(=O)c2ccc3cccnc3c2)c2ccccc2n1CCN1CCOCC1 [Example 2BA] | 93 nM | –
Cc1c(C(=O)c2cccc3cccnc23)c2ccccc2n1CCN1CCOCC1 [Example 2BB] | 129 nM | –
Cc1c(C(=O)c2cnc3ccccc3c2)c2ccccc2n1CCN1CCOCC1 [Example 2BC] | 570 nM | –
Cc1c(C(=O)c2ccc3ccccc3n2)c2ccccc2n1CCN1CCOCC1 [Example 2BD] | 99 nM | –
Cc1c(C(=O)c2ccnc3ccccc23)c2ccccc2n1CCN1CCOCC1 [Example 2BE] | 115 nM | –
O=C(c1ccc2ncccc2c1)c1cn(CCN2CCOCC2)c2ccccc12 [Example 2BF] | 142 nM | –
O=C(c1cccc2ccccc12)c1c(Cl)n(CCN2CCOCC2)c2ccccc12 [Example 2BG] | 6 nM | –
Cc1c(C(=O)c2ccc3cccnc3c2)c2ccccc2n1CCN1CCOCC1 [Example 2BH] | – | 88 nM
Cc1c(C(=O)c2cccc3ccoc23)c2ccccc2n1CCN1CCOCC1 [Example 2BI] | 17 nM | –
O=C(c1cccc2occc12)c1cn(CCN2CCOCC2)c2ccccc12 [Example 2BJ] | 7 nM | –
O=C(c1ccc2ccoc2c1)c1cn(CCN2CCOCC2)c2ccccc12 [Example 2BK] | 40 nM | –
O=C(c1cn(CCN2CCOCC2)c2ccccc12)c1cccc2ccoc12 [Example 2BL] | 4 nM | –
Cc1c(C(=O)Cc2ccccc2)c2ccccc2n1CCN1CCOCC1 [Example 2BM] | 174 nM | –
COc1ccc(C=CC(=O)c2c(C)n(CCN3CCOCC3)c3ccccc23)cc1 [Example 2BN] | 138 nM | –
Cc1c(C(=O)C=Cc2cccc3ccccc23)c2ccccc2n1CCN1CCOCC1 [Example 2BO] | 130 nM | –
O=C(c1cn(CCN2CCOCC2)c2ccccc12)C1CCCc2ccccc21 (centres unmarked) [Example 2BP] | 10 nM | –
O=C(c1ccccc1F)c1cn(CCN2CCOCC2)c2ccccc12 [Example 2BQ] | 500 nM | –
O=C(c1ccc2occc2c1)c1cn(CCN2CCOCC2)c2ccccc12 [Example 2BR] | 30 nM | –
COCc1ccc(C(=O)c2c(C)n(CCN3CCOCC3)c3ccccc23)cc1 [Example 2BW] | 900 nM | –
Cc1ccc(C(=O)c2c(C)n(CCN3CCOCC3)c3ccccc23)c2ccccc12 [Example 2CA] | 9 nM | –
Cc1ccc(C(=O)c2cn(CCN3CCOCC3)c3ccccc23)c2ccccc12 [Example 2CB] | 3 nM | –
O=C(c1cccc2cc(Cl)ccc12)c1cn(CCN2CCOCC2)c2ccccc12 [Example 2CE] | 88 nM | –
Cc1c(C(=O)c2ccc(Cl)cc2Cl)c2ccccc2n1CCN1CCOCC1 [Example 2CF] | 200 nM | –
Cc1c(C(=O)c2cc3ccc4cccc5ccc(c2)c3c45)c2ccccc2n1CCN1CCOCC1 [Example 2CG] | 40 nM | –
Cc1c(C(=O)c2ccccc2Cl)c2ccccc2n1CCN1CCOCC1 [Example 2CH] | 91 nM | –
O=C(c1ccc2ccccc2c1)c1cn(CCN2CCOCC2)c2ccccc12 [Example 2CJ] | 31 nM | –
